# Assay results from patent publication US20200390902A1, “Antibody-Drug Conjugates Targeted at Human Aspartyl-(Asparaginyl)-B-Hydroxylase (HAAH)” (Panacea Pharmaceuticals, Inc., priority 2017, published 2020).
# Entries after “also recorded” stand apart in the source; their conditions may differ. Like-named read-outs stand apart in the source and are kept apart here.
# Tests used:
# H460 cells [1] = assay: MTS cell viability assay, H460; assay type: cell-based, human
# Experimental: Human H460 cells were obtained from the American Type Culture Collection (ATCC; Manassas, Va., U.S.A.). The H460 cells were seeded at a density of 5,000 cells/well in 96-well plates and cultured in HG-DMEM (ThermoFisher Scientific, Waltham. Mass., U.S.A.; Catalog No. 11965-092) supplemented with 20 mM HEPES, 4 mM L-glutamine, 1 mM sodium pyruvate, 1× non-essential amino acids, 50 μg/ml gentamicin, and 10% fetal bovine serum (FBS)). Human MOLM-14 cells were obtained from Dr. Ashkan Emadi at University of Maryland (Baltimore. Md., U.S.A.). The MOLM-14 cells were seeded at a density of 5000 cells/well in 96-well plates and cultured in RPMI 1640 with 20% heat-inactivated FBS. The H460 and MOLM-14 cells were treated with naked antibodies or ADCs for 24 hours, starting at the time of cell seeding. By the end of experiment, the cell viability for both cell lines was determined quantitatively using CELL TITER 96 AQUOUS ONE SOLUTION cell proliferation assay, a colorimetric method for determining the number of viable cells (MTS; Promega, Madison. Wis., U.S.A.; Catalog No. G3582).
# FIG. 6 depicts the effects of linker and payload on cytotoxicity to cancer cell H460. […] The Log of the antibody concentration in nM is shown on the X axis.
# The bioactivities of these SNS622 ADCs were examined using H460 cells. The cells were treated for 48 hours with these SNS622-MC-DM1s, or with SNS622 as control. Cell viability was evaluated at the end of the experiment using an MTS assay.
# SNS622-MC-vc-PAB-DM1 and SNS622-MC-MMAE were also synthesized under different initial DAR ratios of 2.5:1, 5:1 and 10:1 at fixed pH8. The 460 cells were treated for 72 hours with ADCs SNS622-MC-vc-PAB-DM1 at with OAR 2.5:1; 5:1; and 10:1, or SNS622-MC-MMAE at with DAR 2.5:1; 5:1; and 10:1. The cell viability and cell death were separately quantified with […] and lactate dehydrogenase (LDH) release assays. FIG. 8A depicts a graph of the MTA quantification results expressed as percentage of untreated control. FIG. 8B depicts a graph of the LDH assay results expressed as percentage of 512 nM DM1-elicited maximal LDH release. The Log of the antibody concentration in nM is shown on the X axis.
# H460 cells [2] = assay: Cell morphology by phase contrast microscope, H460; assay type: cell-based, human; conditions: H460, 32 nM, 72 hours
# Experimental: Both cell lines were cultured in HG-DMEM (ThermoFisher Scientific Catalog No. 11965-092) supplemented with 20 mM HEPES (4-(2-hydroxyethyl)-1-piperazineethanesulfonic acid), 4 mM L-glutamine, 1 mM sodium pyruvate, 1× non-essential amino acids, 50 μg/ml gentamicin and 10% fetal bovine serum (FBS). H460 and NHLF cells were seeded into 96-well plates at 5,000 cells per well, following a 2-day FBS deprivation, and released by culture in complete culture medium containing 10% FBS. […] By 72 hours post treatment, cell death was determined by observing cell morphology using a phase contrast microscope at 150×.
# MIA-PaCa-2 ASPH cells = assay: MTS cytotoxicity assay, MIA-PaCa-2 ASPH; assay type: cell-based, human; conditions: 10-50 nM, 48 hours
# Experimental: The in vitro specificity of SNS622-MC-DM1 was also examined using the human pancreas cell line MIA-PaCa-2 ASPH. This cell line has a high level expression of ASPH. MIA-PaCa-2 cells were seeded at a density of 2,000 cells/well and cultured in high-glucose (25 mM D-glucose) Dulbecco's Modified Eagle's Medium (DMEM) with 10% FBS at 37° C. in a humidified atmosphere containing 5% CO2. The cells were treated with 10 nM IgG1-MC-DM1, 20 nM IgG1-MC-DM1, 50 nM IgG1-MC-DM1, 10 nM SNS622-MC-DM1, 20 nM SNS622-MC-DM1, or 50 nM SNS622-MC-DM1 for 48 hours. IgG1-MC-DM1 is a control ADC obtained from Goodwin Biotechnology, having catalog No. DAGIC1194, The cytotoxicity of the ADCs was measured using an MTS assay kit (Promega, Catalog No, G3582). After treatment for 1 hour with the MTS solution, absorbance was measured using a microplate reader at a 490 nm wavelength, with a reference at 690 nm.
# [3] = test system: MIA-PaCa-2 ASPH-derived tumors; assay: Mouse model inoculated with pancreas cancer cells, MIA-PaCa-2 ASPH tumors; assay type: in vivo
# Experimental: The efficacy and specificity of SNS622-MC-DM1 was first examined in the mouse model with inoculation of pancreas cancer cells. In this model. 5 to 6-week-old female Nod Scid Gamma (NSG) mice (The Jackson Laboratory, Bar Harbor, Me., U.S.A.) were subcutaneously inoculated with 5×10^5 MIA-PaCa-2 EV cells (MIA-PaCa-2 cells transduced with an empty lentivirus vector) in 100 μl buffer solution on one shoulder, and with 5×10^5 MIA-PaCa-2 ASPH cells (MIA-PaCa-2 cells expressing high levels of ASPH) in 100 μl buffer solution on the other shoulder Two weeks post-inoculation, SNS622-MC-DM1 or IgG1-MC-DM1 was injected at 5 mg/kg through a tail vein once a week for 4 weeks. A representation of the schedule used for the ADC treatments is show n in FIG. 13.
# The volume of the tumors inoculated with the MIA-PaCa-2 ASPH cells was measured starting at day 1 of treatment with ADC, and the results are shown in FIG. 15B.
# [4] = test system: pancreatic ductular adenocarcinoma (PDAC) xenograft; assay: Patient-derived xenograft (PDx) model of PDAC, primary tumor growth; assay type: in vivo, mouse; conditions: 2.5 mg/kg i.v., by day 35, vs SNS622 or non-treated control
# Description: Pancreatic ductular adenocarcinoma (PDAC) is a highly lethal malignancy with limited treatment options. HAAH is a cell surface protein that is highly expressed in […] of PDACs. The specificity of SNS622-MC-DM1 was next examined in the patient-derived xenograft (PDx) mouse model PDAC. The patient-derived xenograft (PDx) murine model was established by using surgically resected PDAC (from Rhode Island Hospital, Providence, R.I., U.S.A.). Five to six-week-old female Nod Scid Gamma (NSG) mice were employed. The surgically resected tumor tissue was diced into 5×5×5 mm^3 pieces, and a piece of tumor tissue was subcutaneously transplanted under anesthesia with isoflurane into each mouse via a small incision in the lower back, A buprenorphine analgesic was injected to each mouse for 3 days after surgery. The SNS622 antibody or the SNS622-MC-DM1 ADC was administered at a dose of 2.5 mg/kg by intravenous tail-vein injection every two weeks starting at day 17 post-surgery. Body weight and tumor size were measured twice a week and tumor volume was calculated using the modified ellipsoid formula (0.5×length×width^2). To determine the effect of SNS622-MC-DM1 on lung metastasis, all lung tissues were immersed in Bouin's fixative solution (Sigma-Aldrich, St. Louis, Mo., U.S.A.; catalog No, HT10132) and metastatic nodules on the surface of the lungs were counted. […]
substance,measurement,setting,value
SNS622-MC-DM1: SNS622 anti-HAAH monoclonal antibody conjugated to mertansine (DM1) by the non-cleavable linker maleimidocaproyl (MC),Effect on H460 cell viability / growth (MTS),"H460 cells [1]; H460, 24 hours",decreased the H460 cell viability; also recorded: inhibit in vitro cell growth of both H460 and MOLM-14
same,EC50,"H460 cells [1]; H460, 24 hours, read-out: EC50, killing of H460 cells (MTS)",~15 nM
same,IC50,"H460 cells [1]; H460, 72 hours, reaction DAR 10:1, read-out: IC50 of MTS",64 nM
same,IC50,"H460 cells [1]; stated for both cancer cell lines (H460 and MOLM-14), read-out: IC50, suppressing cell growth",15 nM
same,Cell density (morphology),H460 cells [2],reduction of cell density
same,Reduction of relative absorbance (MTS),MIA-PaCa-2 ASPH cells,about 16%
same,Effect on MIA-PaCa-2 ASPH tumor volume / growth,"[3]; 5 mg/kg, up to 29 days",robustly suppressed; also recorded: strongly suppressed growth of MIA-PaCa-2 ASPH-derived tumors
same,Reduction in tumor volume in comparison with IgG-MC-DM1 group,"[3]; day 15, 5 mg/kg tail vein once a week",approximately 55%
same,Reduction in tumor volume in comparison with IgG-MC-DM1 group,"[3]; day 22, 5 mg/kg tail vein once a week",approximately 53%
same,Reduction in tumor volume in comparison with IgG-MC-DM1 group,"[3]; day 29, 5 mg/kg tail vein once a week",approximately 53%
same,Volume of MIA-PaCa-2 ASPH-derived tumors relative to MIA-PaCa-2 EV-derived tumors,"[3]; treatment day 29, same mouse, 5 mg/kg",approximately 1/7
same,PDAC tumor growth,[4],significantly reduced PDAC tumor growth
